According to patent US20250230193A1, “CYCLIC COMPOUND HAVING SELECTIVE KRAS INHIBITORY EFFECT ON HRAS AND NRAS” (CHUGAI SEIYAKU KABUSHIKI KAISHA, priority 2022, published 2025):
Where two headings read alike, the source gives them in different places.

What was measured:
[1] = target: GDP-bound NRAS wild-type protein (Homo sapiens, UniProt P01111); experiment: Binding to NRAS by surface plasmon resonance (SPR), Single Cycle Kinetics; conditions: SPR; for NRAS/KRAS (ratio of KD value for NRAS to KD value for KRAS): GDP-bound NRAS wild-type vs GDP-bound KRAS wild-type; for NRAS/KRAS (ratio of KD value for GDP-bound NRAS wild-type protein to KD value for KRAS): KD ratio class
[2] = test system: human lung cancer strain NCI-H441
[3] = target: GDP-bound HRAS wild-type protein (Homo sapiens, UniProt P01112); experiment: Binding to HRAS by surface plasmon resonance (SPR), Single Cycle Kinetics; conditions: SPR; for HRAS/KRAS (ratio of KD value for HRAS to KD value for KRAS): GDP-bound HRAS wild-type vs GDP-bound KRAS wild-type; for HRAS/KRAS (ratio of KD value for GDP-bound HRAS wild-type protein to KD value for KRAS): KD ratio class
[4] = test system: human lung cancer strain NCI-H441; experiment: cells; conditions: NCI-H441, 96 h, read-out: NCI-H441 IC50 (nM)
[5] = read-out: NCI-H441 IC50, NCI-H441 cells, 4 days, CellTiter-Glo

Sequence of GDP-bound HRAS wild-type protein (P01112 whole entry): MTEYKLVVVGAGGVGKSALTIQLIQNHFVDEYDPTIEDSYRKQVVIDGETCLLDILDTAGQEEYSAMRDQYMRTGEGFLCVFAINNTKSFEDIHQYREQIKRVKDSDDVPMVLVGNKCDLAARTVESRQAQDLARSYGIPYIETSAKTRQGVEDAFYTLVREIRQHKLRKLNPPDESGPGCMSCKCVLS
Sequence of GDP-bound NRAS wild-type protein (P01111 whole entry): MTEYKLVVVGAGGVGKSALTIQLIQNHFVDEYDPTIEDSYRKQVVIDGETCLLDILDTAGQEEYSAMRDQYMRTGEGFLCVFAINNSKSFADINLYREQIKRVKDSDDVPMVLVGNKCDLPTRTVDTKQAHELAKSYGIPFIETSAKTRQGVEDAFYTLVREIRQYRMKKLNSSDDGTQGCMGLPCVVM

| Compound | NRAS/KRAS (ratio of KD value for GDP-bound NRAS wild-type protein to KD value for KRAS) [1] | HRAS/KRAS (ratio of KD value for GDP-bound HRAS wild-type protein to KD value for KRAS) [3] | IC50 [4] [nM] | other results |
| --- | --- | --- | --- | --- |
| CCO[C@@H]1C[C@H]2C(=O)NC3(CC(C)(C)C3)C(=O)N(C)[C@@H](C3CCCC3)C(=O)N(C)[C@H](C(=O)N3CCCCC3)CC(=O)N(C)[C@H]3CCCCc4ccc(cc4)C[C@@H](C(=O)N(C)CC(=O)N[C@@H](CCc4ccc(C(F)(F)F)c(OC)c4)C(=O)N2C1)N1CC/C=C\C[C@@H](C1=O)N(C)C(=O)CN(C)C(=O)[C@H]([C@@H](C)CC)NC3=O [PP3093, (1S,7S,11R,13S,19S,22S,26S,29S,35S,37Z)-19-cyclopentyl-11-ethoxy-7-[2-[3-methoxy-4-(trifluoromethyl)phenyl]ethyl]-3,3′,3′,18,21,25,31,34-octamethyl-29-[(1S)-1-methylpropyl]-22-(piperidine-1-carbonyl)spiro[3,6,9,15,18,21,25,28,31,34,41-undecazapentacyclo[24.15.9.2^43,46.1^35,41.0^9,13]tripentaconta-37,43(52),44,46(51)-tetraene-16,1′-cyclobutane]-2,5,8,14,17,20,24,27,30,33,53-undecone] | – | – | – | NRAS/KRAS (ratio of KD value with respect to GDP-bound NRAS wild-type protein to KD value with respect to KRAS) ([1]; KD ratio NRAS/KRAS, GDP-bound wild-type proteins): A (a compound having 10 or more and less than 20 is denoted as A); IC50 [2, 5]: 3.2 nM; HRAS/KRAS (ratio of KD value with respect to GDP-bound HRAS wild-type protein to KD value with respect to KRAS) ([3]; KD ratio HRAS/KRAS, GDP-bound wild-type proteins): A (a compound having 10 or more and less than 20 is denoted as A) |
| CC[C@H](C)[C@@H]1NC(=O)[C@H](C2CC2)N(C)C(=O)C[C@@H](C(=O)N(C)C)N(C)C(=O)[C@H](C2CCCC2)N(C)C(=O)C2(CCCC2)N(C)C(=O)[C@@H]2CCCN2C(=O)[C@H](CCc2cc(F)c(C(F)(F)F)c(F)c2)NC(=O)CN(C)C(=O)[C@H](Cc2ccc(C)cc2)N2CC/C=C\C[C@@H](C2=O)N(C)C(=O)CN(C)C1=O [PP1809] | – | – | – | NRAS/KRAS (ratio of KD value for NRAS to KD value for KRAS) [1]: A (a compound having 10 or more and less than 20 is denoted as A); IC50 [2]: 22.4 nM; HRAS/KRAS (ratio of KD value for HRAS to KD value for KRAS) [3]: B (a compound having 3 or more and less than 10 is denoted as B) |
| CC[C@H](C)[C@@H]1NC(=O)[C@H](CC(C)C)N(C)C(=O)C[C@@H](C(=O)N(C)CC)N(C)C(=O)[C@H](C2CCCC2)N(C)C(=O)C2(CC(C)(C)C2)NC(=O)[C@@H]2C[C@@H](C)CN2C(=O)[C@H](CCc2ccc(C(F)(F)F)c(OC)c2)NC(=O)CN(C)C(=O)[C@H](Cc2ccc(C)cc2)N2CC/C=C\C[C@@H](C2=O)N(C)C(=O)CN(C)C1=O [PP1909] | – | – | – | NRAS/KRAS (ratio of KD value for NRAS to KD value for KRAS) [1]: A (a compound having 10 or more and less than 20 is denoted as A); IC50 [2]: 15.3 nM; HRAS/KRAS (ratio of KD value for HRAS to KD value for KRAS) [3]: B (a compound having 3 or more and less than 10 is denoted as B) |
| CCO[C@@H]1C[C@H]2C(=O)NC3(CCC3)C(=O)N(C)[C@@H](C3CCCC3)C(=O)N(C)[C@@H](C(C)C)CC(=O)N(C)[C@@H](CC3CC3)C(=O)N[C@@H]([C@@H](C)CC)C(=O)N(C)CC(=O)N(C)[C@H]3C/C=C\CCN(C3=O)[C@@H](Cc3ccc(C(F)(F)F)cc3)C(=O)N(C)CC(=O)N[C@@H](CCc3cc(F)c(C(F)(F)F)c(F)c3)C(=O)N2C1 [PP1596] | – | – | – | IC50 [2, 5]: 18.1 nM |
| CC[C@H](C)[C@@H]1NC(=O)[C@H](CC(C)C)N(C)C(=O)C[C@@H](C(=O)N(C)C)N(C)C(=O)[C@H](C2CCCC2)N(C)C(=O)C2(CCCC2)NC(=O)[C@@H]2CCCN2C(=O)[C@H](CCc2ccc(C(F)(F)F)c(Cl)c2)NC(=O)CN(C)C(=O)[C@H](Cc2ccc(C)cc2)N2C/C=C\COC[C@@H](C2=O)N(C)C(=O)CN(C)C1=O [PP0627] | – | – | – | IC50 [2]: 98.3 nM |
| CC[C@H](C)[C@@H]1NC(=O)[C@H](CC)N(C)C(=O)C[C@@H](C(=O)N(C)C)N(C)C(=O)[C@H](C2CCCC2)N(C)C(=O)C2(CCC2)NC(=O)[C@@H]2C[C@@H](C(F)(F)F)CN2C(=O)[C@H](CCc2cc(F)c(C(F)(F)F)c(F)c2)NC(=O)CN(C)C(=O)[C@H](CC2CCCCC2)N2CC/C=C\C[C@@H](C2=O)N(C)C(=O)CN(C)C1=O [PP1465] | A (a compound having 10 or more and less than 20 is denoted as A) | A (a compound having 10 or more and less than 20 is denoted as A) | 34.1 | – |
| CCO[C@@H]1C[C@H]2C(=O)NC3(CCC3)C(=O)N(C)[C@@H](C(CC)CC)C(=O)N(C)[C@H](C)CC(=O)N(C)[C@@H](CC3CCCC3)C(=O)N[C@@H]([C@@H](C)CC)C(=O)N(C)CC(=O)N(C)[C@H]3C/C=C\CCN(C3=O)[C@@H](Cc3ccc(F)cc3C)C(=O)N(C)CC(=O)N[C@@H](CCc3cc(F)c(C(F)(F)F)c(F)c3)C(=O)N2C1 [PP1522] | A (a compound having 10 or more and less than 20 is denoted as A) | A (a compound having 10 or more and less than 20 is denoted as A) | 567 | – |
| CCCOC[C@H]1C(=O)N[C@@H]([C@@H](C)CC)C(=O)N(C)CC(=O)N(C)[C@H]2C/C=C\CCN(C2=O)[C@@H](Cc2ccc(C(F)(F)F)cc2)C(=O)N(C)CC(=O)N[C@@H](CCc2cc(F)c(C(F)(F)F)c(F)c2)C(=O)N2C[C@H](OCC)C[C@H]2C(=O)NC2(CCCC2)C(=O)N(C)[C@@H](C2CCCC2)C(=O)N(C)[C@H](C(=O)N2CCCC2)CC(=O)N1C [PP1399] | A (a compound having 10 or more and less than 20 is denoted as A) | A (a compound having 10 or more and less than 20 is denoted as A) | 18.8 | – |
| CC[C@H](C)[C@@H]1NC(=O)[C@H](CC2CCC2)N(C)C(=O)C[C@@H](C(=O)N(C)C)N(C)C(=O)[C@H](C2CCCC2)N(C)C(=O)C2(CCCC2)NC(=O)[C@@H]2CCCN2C(=O)[C@H](CCc2cc(F)c(C(F)(F)F)c(F)c2)NC(=O)CN(C)C(=O)[C@H](Cc2ccc(C(F)(F)F)cc2)N2C[C@H](C)CC[C@@H](C2=O)N(C)C(=O)CN(C)C1=O [PP1386] | B (a compound having 3 or more and less than 10 is denoted as B) | B (a compound having 3 or more and less than 10 is denoted as B) | 4.2 | – |
| CCC[C@H]1C(=O)N[C@@H]([C@@H](C)CC)C(=O)N(C)CC(=O)N(C)[C@H]2C/C=C\CCN(C2=O)[C@@H](Cc2ccc(C(F)(F)F)cc2)C(=O)N(C)CC(=O)N[C@@H](CCc2cc(F)c(C(F)(F)F)c(F)c2)C(=O)N2C[C@H](OCC)C[C@H]2C(=O)NC2(CCC2)C(=O)N(C)[C@@H](C2CCCC2)C(=O)N(C)[C@H](C(=O)N2CCOCC2)CC(=O)N1C [PP1288] | AA (a compound having 20 or more is denoted as AA) | A (a compound having 10 or more and less than 20 is denoted as A) | 22.2 | – |
| CCO[C@@H]1C[C@H]2C(=O)NC3(CCC3)C(=O)N(C)[C@@H](C3CCCC3)C(=O)N(C)[C@H](C3CCCCC3)CC(=O)N(C)[C@@H](COC)C(=O)N[C@@H]([C@@H](C)CC)C(=O)N(C)CC(=O)N(C)[C@H]3C/C=C\CCN(C3=O)[C@@H](Cc3ccc(C(F)(F)F)cc3)C(=O)N(C)CC(=O)N[C@@H](CCc3cc(F)c(C(F)(F)F)c(F)c3)C(=O)N2C1 [PP1584] | B (a compound having 3 or more and less than 10 is denoted as B) | B (a compound having 3 or more and less than 10 is denoted as B) | 66.4 | – |
| CCO[C@@H]1C[C@H]2C(=O)NC3(CCC3)C(=O)N(C)[C@@H](C(CC)CC)C(=O)N(C)[C@H](C(=O)N3CCCC3)CC(=O)N(C)[C@@H](C)C(=O)N[C@@H]([C@@H](C)CC)C(=O)N(C)CC(=O)N(C)[C@H]3C/C=C\CCN(C3=O)[C@@H](CC3CCC(F)(F)CC3)C(=O)N(C)CC(=O)N[C@@H](CCc3cc(F)c(C(F)(F)F)c(F)c3)C(=O)N2C1 [PP1436] | AA (a compound having 20 or more is denoted as AA) | A (a compound having 10 or more and less than 20 is denoted as A) | 47.4 | – |
| CC[C@H](C)[C@@H]1NC(=O)[C@H](CC)N(C)C(=O)C[C@@H](C(=O)N2CCOCC2)N(C)C(=O)[C@H](C2CCCC2)N(C)C(=O)C2(CCC2)NC(=O)[C@@H]2CCCN2C(=O)[C@H](CCc2cc(F)c(C(F)(F)F)c(F)c2)NC(=O)CN(C)C(=O)[C@H](Cc2ccc(C(F)(F)F)cc2)N2C[C@H](C)CC[C@@H](C2=O)N(C)C(=O)CN(C)C1=O [PP1384] | A (a compound having 10 or more and less than 20 is denoted as A) | B (a compound having 3 or more and less than 10 is denoted as B) | 13.5 | – |
| CCO[C@@H]1C[C@H]2C(=O)NC3(CCCC3)C(=O)N(C)[C@@H](C3CCCC3)C(=O)N(C)[C@H](C(=O)N3CCOCC3)CC(=O)N(C)[C@@H](CC)C(=O)N[C@@H]([C@@H](C)CC)C(=O)N(C)CC(=O)N(C)[C@H]3C[C@H](C)C(C)CN(C3=O)[C@@H](Cc3ccc(C(F)(F)F)cc3)C(=O)N(C)CC(=O)N[C@@H](CCc3cc(F)c(C(F)(F)F)c(F)c3)C(=O)N2C1 (some centres unmarked) [PP1348] | B (a compound having 3 or more and less than 10 is denoted as B) | B (a compound having 3 or more and less than 10 is denoted as B) | 8.7 | – |
| CCO[C@@H]1C[C@H]2C(=O)NC3(CCC3)C(=O)N(C)[C@@H](C(CC)CC)C(=O)N(C)[C@H](C(=O)N(C)C)CC(=O)N(C)[C@@H](CC(C)C)C(=O)N[C@@H]([C@@H](C)CC)C(=O)N(C)CC(=O)N(C)[C@H]3C/C=C\CCN(C3=O)[C@@H](CC3CCCCC3)C(=O)N(C)CC(=O)N[C@@H](CCc3cc(F)c(C(F)(F)F)c(F)c3)C(=O)N2C1 [PP1432] | AA (a compound having 20 or more is denoted as AA) | A (a compound having 10 or more and less than 20 is denoted as A) | 51.3 | – |
